Earlier results, collected in patent US20190046552A1, “COMPOSITIONS AND METHODS FOR THE TREATMENT OF HCV INFECTION” (priority 2015, published 2019).

System: panel of cell lines
Settings: read-out: 50% cytotoxic concentration (CC50), Coughlin et al. 2010; cited from earlier work

CO[C@H]1C(OP(=O)(OC[C@H]2O[C@@H](n3cnc4c(N)ncnc43)CC2O)SCOC(=O)OC(C)C)[C@@H](CO)O[C@H]1n1ccc(=O)[nH]c1=O (stereo partly shown) [Formula (II)]
CC50: > 1 mM
